Active and inactive are the calls of the source. No cut-off for these calls is given here.
Tests used:
Quadruplex DNA [1] = experiment: Binding affinity to human G-quadruplex telomeric DNA F25CebT (5'-duplex FAM-AGGGTGGGTGTAAGTGTGGGTGGGT-TAM-3') assessed as stabilization by measuring change in melting temperature at 5 uM by FRET melting assay; assay type: nucleic-acid assay
Quadruplex DNA [2] = experiment: Binding affinity to human G-quadruplex telomeric DNA F21T (5'-duplex FAM-GGGTTAGGGTTAGGGTTAGGG-TAM-3') assessed as stabilization by measuring change in melting temperature at 5 uM by FRET melting assay; assay type: nucleic-acid assay
Quadruplex DNA [3] = experiment: Binding affinity to G-quadruplex telomeric DNA 22AG (5'-duplex AGGGTTAGGGTTAGGGTTAGGG-3') (unknown origin) assessed as stabilization by measuring change in melting temperature at 0.5 M by circular dichroism (CD) spectroscopy; assay type: nucleic-acid assay
Quadruplex DNA [4] = experiment: Binding affinity to G-quadruplex telomeric DNA 22AG (5'-duplex AGGGTTAGGGTTAGGGTTAGGG-3') (unknown origin) assessed as stabilization by measuring change in melting temperature at 3 M by circular dichroism (CD) spectroscopy; assay type: nucleic-acid assay
Quadruplex DNA [5] = experiment: Binding affinity to G-quadruplex telomeric DNA 22CTA (5'-duplex AGGGCTAGGGCTAGGGCTAGGG-3') (unknown origin) assessed as stabilization by measuring change in melting temperature at 1 M by circular dichroism (CD) spectroscopy; assay type: nucleic-acid assay
Quadruplex DNA [6] = experiment: Binding affinity to G-quadruplex telomeric DNA 22CTA (5'-duplex AGGGCTAGGGCTAGGGCTAGGG-3') (unknown origin) assessed as stabilization by measuring change in melting temperature at 0.5 M by circular dichroism (CD) spectroscopy; assay type: nucleic-acid assay
Quadruplex DNA [7] = experiment: Binding affinity to G-quadruplex telomeric DNA 22AG (5'-duplex AGGGTTAGGGTTAGGGTTAGGG-3') (unknown origin) assessed as stabilization by measuring change in melting temperature at 1 M by circular dichroism (CD) spectroscopy; assay type: nucleic-acid assay
Quadruplex DNA [8] = experiment: Binding affinity to G-quadruplex telomeric DNA 26ceb (5'-duplex AAGGGTGGGTGTAAGTGTGGGTGGGT-3') (unknown origin) assessed as stabilization by measuring change in melting temperature at 0.5 M by circular dichroism (CD) spectroscopy; assay type: nucleic-acid assay
Quadruplex DNA [9] = experiment: Binding affinity to G-quadruplex telomeric DNA 22CTA (5'-duplex AGGGCTAGGGCTAGGGCTAGGG-3') (unknown origin) assessed as stabilization by measuring change in melting temperature at 3 M by circular dichroism (CD) spectroscopy; assay type: nucleic-acid assay
Quadruplex DNA [10] = experiment: Binding affinity to G-quadruplex telomeric DNA 26ceb (5'-duplex AAGGGTGGGTGTAAGTGTGGGTGGGT-3') (unknown origin) assessed as stabilization by measuring change in melting temperature at 5 M by circular dichroism (CD) spectroscopy; assay type: nucleic-acid assay
Quadruplex DNA [11] = experiment: Binding affinity to G-quadruplex telomeric DNA 22AG (5'-duplex AGGGTTAGGGTTAGGGTTAGGG-3') (unknown origin) assessed as stabilization by measuring change in melting temperature at 5 M by circular dichroism (CD) spectroscopy; assay type: nucleic-acid assay
Quadruplex DNA [12] = experiment: Binding affinity to human G-quadruplex telomeric DNA F21CTAT (5'-duplex FAM-GGGCTAGGGCTAGGGCTAGGG-TAM-3') assessed as stabilization by measuring change in melting temperature at 5 uM by FRET melting assay; assay type: nucleic-acid assay
NHDF = experiment: (§1) Cytotoxicity against human NHDF cells assessed as cell viability at 10 uM after 48 hrs by MTT assay; assay type: toxicity, cell-based; conditions: nhdf, 48 h, 10 µM
Quadruplex DNA [13] = experiment: Binding affinity to G-quadruplex telomeric DNA 26ceb (5'-duplex AAGGGTGGGTGTAAGTGTGGGTGGGT-3') (unknown origin) assessed as stabilization by measuring change in melting temperature at 1 M by circular dichroism (CD) spectroscopy; assay type: nucleic-acid assay
Quadruplex DNA [14] = experiment: Binding affinity to G-quadruplex telomeric DNA 26ceb (5'-duplex AAGGGTGGGTGTAAGTGTGGGTGGGT-3') (unknown origin) assessed as stabilization by measuring change in melting temperature at 3 M by circular dichroism (CD) spectroscopy; assay type: nucleic-acid assay
Quadruplex DNA [15] = experiment: Binding affinity to G-quadruplex telomeric DNA 22CTA (5'-duplex AGGGCTAGGGCTAGGGCTAGGG-3') (unknown origin) assessed as stabilization by measuring change in melting temperature at 5 M by circular dichroism (CD) spectroscopy; assay type: nucleic-acid assay
NCI-H1299 = experiment: Antiproliferative activity against human NCI-H1299 cells assessed as cell viability at 10 uM after 48 hrs by MTT assay; assay type: functional
[16] = as §1; assay type: toxicity, cell-based; conditions: NHDF cells, read-out: Activity
A549 = experiment: Antiproliferative activity against human A549 cells assessed as cell viability at 10 uM after 48 hrs by MTT assay; assay type: functional; conditions: for viability at 10 µM: read-out: Activity
Quadruplex DNA [17] = experiment: Binding affinity to G-quadruplex telomeric DNA FdxT (5'-duplex FAM-TATAGCTAT-PEG-TATAGCTATA-TAM-3') assessed as stabilization by measuring change in melting temperature at 5 uM by FRET melting assay; assay type: nucleic-acid assay

OCC/N=C/c1ccc2ccc3ccc(/C=N/CCO)nc3c2n1
ΔTm (Quadruplex DNA [1]): 0.9 °C | ΔTm (Quadruplex DNA [2]): 1.1 °C

CC(C)(C)OC(=O)NCC/N=C/c1ccc2ccc3ccc(/C=N/CCNC(=O)OC(C)(C)C)nc3c2n1
ΔTm (Quadruplex DNA [1]): 0.6 °C | ΔTm (Quadruplex DNA [2]): 0.6 °C

COc1ccc(NCc2ccc3ccc4ccc(CNc5ccc(OC)cc5)nc4c3n2)cc1
ΔTm (Quadruplex DNA [3]): 0.5 °C | ΔTm (Quadruplex DNA [4]): 1.5 °C | ΔTm (Quadruplex DNA [5]): 1.8 °C | ΔTm (Quadruplex DNA [6]): 0.9 °C | ΔTm (Quadruplex DNA [7]): 0.9 °C | ΔTm (Quadruplex DNA [8]): 1.1 °C | ΔTm (Quadruplex DNA [9]): 2.6 °C | ΔTm (Quadruplex DNA [10]): 8.1 °C | ΔTm (Quadruplex DNA [11]): 1.1 °C | ΔTm (Quadruplex DNA [12]): 4.1 °C | Activity (NHDF): Toxic | ΔTm (Quadruplex DNA [1]): 3.8 °C | ΔTm (Quadruplex DNA [13]): 2.3 °C | ΔTm (Quadruplex DNA [14]): 5.9 °C | ΔTm (Quadruplex DNA [2]): 9.2 °C | ΔTm (Quadruplex DNA [15]): 3.1 °C

CCCCCC/N=C/c1ccc2ccc3ccc(/C=N/CCCCCC)nc3c2n1
Activity (NHDF): Non-Toxic | ΔTm (Quadruplex DNA [1]): 0.7 °C | ΔTm (Quadruplex DNA [2]): 1.1 °C

CCCCCCNCc1ccc2ccc3ccc(CNCCCCCC)nc3c2n1
viability at 10 µM (NCI-H1299; read-out: Activity): 42.9% | viability at 48 h, 10 µM [16]: 22.4% | viability at 10 µM (A549): 27.4% | ΔTm (Quadruplex DNA [2]): 5.3 °C

CC/N=C/c1ccc2ccc3ccc(/C=N/CC)nc3c2n1
ΔTm (Quadruplex DNA [1]): 1.2 °C | ΔTm (Quadruplex DNA [2]): 1.5 °C

CC(C)(C)OC(=O)NCCNC(=O)c1ccc2ccc3ccc(C(=O)NCCNC(=O)OC(C)(C)C)nc3c2n1
Activity (NCI-H1299): Active | ΔTm (Quadruplex DNA [1]): 0.8 °C | Activity (A549): Active | ΔTm (Quadruplex DNA [2]): 0.7 °C

NCCNC(=O)c1ccc2ccc3ccc(C(=O)NCCN)nc3c2n1
ΔTm (Quadruplex DNA [3]): 0.5 °C | ΔTm (Quadruplex DNA [4]): 2.5 °C | ΔTm (Quadruplex DNA [5]): 1.3 °C | ΔTm (Quadruplex DNA [6]): 0.4 °C | ΔTm (Quadruplex DNA [7]): 0.3 °C | ΔTm (Quadruplex DNA [8]): 3.4 °C | ΔTm (Quadruplex DNA [9]): 2.9 °C | ΔTm (Quadruplex DNA [10]): 11.7 °C | ΔTm (Quadruplex DNA [11]): 1.4 °C | Activity (NCI-H1299): Active | ΔTm (Quadruplex DNA [12]): 2.9 °C | viability at 48 h, 10 µM [16]: 75.1% | ΔTm (Quadruplex DNA [1]): 1.8 °C | ΔTm (Quadruplex DNA [13]): 4.6 °C | ΔTm (Quadruplex DNA [14]): 9.7 °C | viability at 10 µM (A549): 24.5% | ΔTm (Quadruplex DNA [2]): 7.2 °C | ΔTm (Quadruplex DNA [15]): 4.3 °C

NNC(=O)c1ccc2ccc3ccc(C(=O)NN)nc3c2n1
Activity (NCI-H1299): Active | ΔTm (Quadruplex DNA [1]): 1.2 °C | Activity (A549): Active | ΔTm (Quadruplex DNA [2]): 1.8 °C

NCCNCc1ccc2ccc3ccc(CNCCN)nc3c2n1.O=C(O)C(F)(F)F.O=C(O)C(F)(F)F.O=C(O)C(F)(F)F.O=C(O)C(F)(F)F
ΔTm (Quadruplex DNA [3]): 0.7 °C | ΔTm (Quadruplex DNA [4]): 3.4 °C | ΔTm (Quadruplex DNA [5]): 1.3 °C | ΔTm (Quadruplex DNA [6]): 0.6 °C | ΔTm (Quadruplex DNA [7]): 2.1 °C | ΔTm (Quadruplex DNA [8]): 0.9 °C | ΔTm (Quadruplex DNA [9]): 1.9 °C | ΔTm (Quadruplex DNA [10]): 7.6 °C | ΔTm (Quadruplex DNA [11]): 3.5 °C | ΔTm (Quadruplex DNA [12]): 5.2 °C | Activity (NHDF): Toxic | ΔTm (Quadruplex DNA [1]): 7.8 °C | ΔTm (Quadruplex DNA [13]): 2.1 °C | ΔTm (Quadruplex DNA [14]): 5.4 °C | ΔTm (Quadruplex DNA [2]): 12 °C | ΔTm (Quadruplex DNA [15]): 2.1 °C

O=C1NCCNCCNC(=O)c2ccc3ccc4ccc1nc4c3n2
Activity (NCI-H1299): Active | ΔTm (Quadruplex DNA [1]): 1.7 °C | Activity (A549): Active | ΔTm (Quadruplex DNA [2]): 0.4 °C

CC(C)(C)OC(=O)NCCNCc1ccc2ccc3ccc(CNCCNC(=O)OC(C)(C)C)nc3c2n1
ΔTm (Quadruplex DNA [1]): 0.9 °C | ΔTm (Quadruplex DNA [2]): 1.2 °C

COc1ccc(/N=C/c2ccc3ccc4ccc(/C=N/c5ccc(OC)cc5)nc4c3n2)cc1
ΔTm (Quadruplex DNA [1]): 0.7 °C | ΔTm (Quadruplex DNA [2]): 0.8 °C

OCCNCc1ccc2ccc3ccc(CNCCO)nc3c2n1
ΔTm (Quadruplex DNA [1]): 0.4 °C | ΔTm (Quadruplex DNA [2]): 1.2 °C

C[n+]1cc(NC(=O)c2ccc3ccc4ccc(C(=O)Nc5cc6ccccc6[n+](C)c5)nc4c3n2)cc2ccccc21
ΔTm (Quadruplex DNA [17]): 0.6 °C | ΔTm (Quadruplex DNA [12]): > 30 °C | ΔTm (Quadruplex DNA [1]): > 30 °C | ΔTm (Quadruplex DNA [2]): > 30 °C

O=C(N/N=C/c1c(O)ccc2ccccc12)c1ccc2ccc3ccc(C(=O)N/N=C/c4c(O)ccc5ccccc45)nc3c2n1
ΔTm (Quadruplex DNA [1]): 2.6 °C | ΔTm (Quadruplex DNA [2]): 1 °C

O=C1NCCOCCOCCNC(=O)c2ccc3ccc4ccc1nc4c3n2
Activity (NCI-H1299): Active | ΔTm (Quadruplex DNA [1]): 0.4 °C | Activity (A549): Active | ΔTm (Quadruplex DNA [2]): 0.5 °C
